Data published in ChEMBL document CHEMBL4732175, “Design and Characterization of a Pyridone-Containing EZH2 Inhibitor Phosphate Prodrug” (J Med Chem, 2021).
Values after ≈ are worked out from the molar mass of the structure shown. Active and inactive are the calls of the source. The rule behind the calls is not given here.

Assays:
[1] = Distribution coefficient, log D of compound; assay type: physicochemical; conditions: octanol/water
[2] = Thermodynamic solubility in 0.5% MC/0.1% polysorbate 80 aqueous vehicle; assay type: physicochemical; conditions: read-out: Therm_solubility
[3] = Drug level in mouse plasma at 120 mg/kg, po BID dosed using SEDDS formulation; assay type: ADME, organism-based; conditions: in vivo
KARPAS-422 [4] = test: Inhibition of cell proliferation in human KARPAS-422 cells; assay type: functional, cell-based
[5] = molecular target: T1, Histone-lysine N-methyltransferase EZH2 (Homo sapiens, UniProt Q15910); test: Inhibition of wild type EZH2 (unknown origin)
[6] = molecular target: Histone-lysine N-methyltransferase EZH2 (Homo sapiens, UniProt Q15910, Y641N); test: Inhibition of wild type EZH2 Y641N mutant (unknown origin)
[7] = Permeability in MDCK cells; assay type: ADME, cell-based, Canis lupus familiaris; conditions: dog, read-out: permeability
[8] = Apparent solubility of the compound; assay type: physicochemical
[9] = Intrinsic clearance in human liver microsomes; assay type: ADME, Microsome; conditions: read-out: CLH
[10] = molecular target: T1, Histone-lysine N-methyltransferase EZH2; test: Inhibition of wild type EZH2 in human KARPAS-422 cells assessed as effect on H3K27Me3 levels; assay type: cell-based
KARPAS-422 [11] = test: Antitumor activity against human KARPAS-422 cells xenografted in mouse assessed as inhibition of tumor growth inhibition at 240 mg/kg/day dosed via SEDDS formulation for 30 days; conditions: KARPAS-422, 720 h, read-out: TGI
KARPAS-422 [12] = test: Antitumor activity against human KARPAS-422 cells xenografted in mouse assessed as inhibition of tumor growth inhibition at 240 mg/kg/day dosed via MC formulation for 30 days; assay type: functional; conditions: KARPAS-422, 720 h, time 30 day, read-out: TGI
KARPAS-422 [13] = test: Antitumor activity against human KARPAS-422 cells xenografted in mouse assessed as inhibition of tumor growth inhibition at 60 to 240 mg/kg/day dosed via MC formulation for 30 days; assay type: functional, organism-based; conditions: dose 60-240 mg/kg/day, time 30.0 day
[14] = Chemical stability in simulated gastric fluid at pH 1.2; assay type: physicochemical
[15] = Drug level in rat plasma at 2000 mg/kg/day, po; assay type: ADME, organism-based; conditions: in vivo
KARPAS-422 [16] = test: Antitumor activity against human KARPAS-422 cells xenografted in mouse assessed as inhibition of tumor growth inhibition at 120 mg/kg/day dosed via MC formulation for 30 days; assay type: functional; conditions: KARPAS-422, 720 h, time 30 day, read-out: TGI
[17] = Drug metabolism in rat plasma assessed as 5,8-dichloro-2-((4,6-dimethyl-2-oxo-1,2-dihydropyridin-3-yl)methyl)-7-(3,5-dimethylisoxazol-4-yl)-3,4-dihydroisoquinolin-1(2H)-one formation at 2000 mg/kg/day, po; assay type: ADME, organism-based; conditions: in vivo
KARPAS-422 [18] = test: Antitumor activity against human KARPAS-422 cells xenografted in mouse assessed as inhibition of tumor growth inhibition at 147 mg/kg/day dosed via MC formulation for 30 days and measured up to 40 days after dosing cessation; assay type: functional, organism-based; conditions: time 30.0 day
[19] = Drug metabolism in mouse plasma assessed as 5,8-dichloro-2-((4,6-dimethyl-2-oxo-1,2-dihydropyridin-3-yl)methyl)-7-(3,5-dimethylisoxazol-4-yl)-3,4-dihydroisoquinolin-1(2H)-one formation at 30 to 120 mg/kg, po BID; assay type: ADME, organism-based; conditions: in vivo, dose 30-120 mg/kg
[20] = Drug level in mouse plasma at 30 to 120 mg/kg, po BID; assay type: ADME, organism-based; conditions: in vivo, dose 30-120 mg/kg
[21] = Chemical stability in simulated intestinal fluid at pH 6.8; assay type: physicochemical
[22] = Solubility in 0.5% MC formulation contained 1 equivalent of NaOH; assay type: physicochemical; conditions: 0.5% MC formulation containing 1 equivalent of NaOH
KARPAS-422 [23] = test: Antitumor activity against human KARPAS-422 cells xenografted in mouse assessed as inhibition of tumor growth inhibition at 60 mg/kg/day dosed via MC formulation for 30 days; assay type: functional; conditions: KARPAS-422, 720 h, time 30 day, read-out: TGI
KARPAS-422 [24] = test: Antitumor activity against human KARPAS-422 cells xenografted in mouse assessed as inhibition of tumor growth inhibition at 240 mg/kg/day dosed via SEDDS formulation for 30 days; assay type: functional, organism-based; conditions: time 30.0 day

T1 sequence (Q15910 whole entry): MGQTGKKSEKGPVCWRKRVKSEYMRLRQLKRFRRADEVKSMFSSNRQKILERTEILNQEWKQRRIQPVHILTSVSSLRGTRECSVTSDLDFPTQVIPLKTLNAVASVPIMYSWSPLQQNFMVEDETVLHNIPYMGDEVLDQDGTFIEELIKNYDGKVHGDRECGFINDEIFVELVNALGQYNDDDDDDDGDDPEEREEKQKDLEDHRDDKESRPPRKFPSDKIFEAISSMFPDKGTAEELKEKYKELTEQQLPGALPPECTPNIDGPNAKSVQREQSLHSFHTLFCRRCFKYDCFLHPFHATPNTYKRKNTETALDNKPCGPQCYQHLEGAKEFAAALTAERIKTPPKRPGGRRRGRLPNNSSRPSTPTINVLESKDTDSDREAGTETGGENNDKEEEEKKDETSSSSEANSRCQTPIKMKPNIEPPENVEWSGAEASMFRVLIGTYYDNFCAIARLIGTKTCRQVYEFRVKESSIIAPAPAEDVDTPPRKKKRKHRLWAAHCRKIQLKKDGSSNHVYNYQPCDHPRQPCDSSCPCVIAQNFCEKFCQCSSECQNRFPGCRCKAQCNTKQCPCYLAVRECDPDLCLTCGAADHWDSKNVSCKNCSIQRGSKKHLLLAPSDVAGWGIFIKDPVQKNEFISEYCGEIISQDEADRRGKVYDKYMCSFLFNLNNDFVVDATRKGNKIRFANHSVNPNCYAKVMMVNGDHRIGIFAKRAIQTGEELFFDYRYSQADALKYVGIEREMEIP
Sequence of Histone-lysine N-methyltransferase EZH2 (Homo sapiens, UniProt Q15910, Y641N) (Q15910 whole entry Y641N): as the sequence (Q15910 whole entry) above, with Y641N counted along it

With `Cc1cc(C)c(CN2CCc3c(Br)cc(-c4c(C)nnn4C)c(Cl)c3C2=O)c(=O)[nH]1` the logD [1] was 2.4, the solubility thermodynamic [2] was 41 µM (≈ 20.1 µg/mL) and the Drug uptake [3] was “Active”. The IC50 (KARPAS-422 [4]) was 36 nM, the Ki [5] was 2 nM and the Ki [6] was 7 nM. For the same compound, the Papp [7] was 9 ×10⁻⁶ cm/s, the solubility [8] was 338 µM (≈ 166 µg/mL) and the microsomal CLint [9] was 27.8 µL/min/mg. It also gave an IC50 [10] of 30 nM and an inhibition in vivo at 240 mg/kg/day (KARPAS-422 [11]) of 98%.
Compound `Cc1cc(C)c(CN2CCc3c(Cl)cc(-c4c(C)noc4C)c(Cl)c3C2=O)c(=O)[nH]1` has a logD [1] of 3.1, a Ki [5] of 1 nM and a solubility [8] of 140 µM (≈ 62.5 µg/mL).
For `Cc1cc(C)n(COP(=O)(O)O)c(=O)c1CN1CCc2c(Br)cc(-c3c(C)nnn3C)c(Cl)c2C1=O`, the inhibition in vivo at 240 mg/kg/day (KARPAS-422 [12]) was 121%, the TGI (KARPAS-422 [13]) was “Dose-dependent effect” and the Stabilty [14] was 8 h. The Drug uptake [15] was “Not Active”, the inhibition in vivo at 120 mg/kg/day (KARPAS-422 [16]) was 59% and the Drug metabolism [17] was “Metabolite_Detected”. The TGI (KARPAS-422 [18]) was “Active”, the Drug metabolism [19] was “Dose-dependent effect” and the Cp [20] was less than 1 ng/mL. For the same compound, the Stabilty [21] was 8 h, the solubility [22] was 21.6 mM and the inhibition in vivo at 60 mg/kg/day (KARPAS-422 [23]) was 37%. For the same compound, the TGI (KARPAS-422 [24]) was “Active”.
